From patent US20240083872A1, “CYCLIC AMINE DERIVATIVES HAVING SEROTONIN RECEPTOR BINDING ACTIVITY” (Shionogi & Co., Ltd., priority 2020, published 2024)
Read-outs that look alike come from different tables or passages of the source.

Experiments:
[1] = target: human recombinant 5-HT2A receptor (Homo sapiens (Human), UniProt P28223); test: 5-HT2A receptor binding inhibition test ([3H]-Ketanserin); conditions: Jump-In HEK cell membrane
How it was run: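 HEK cell membranes expressing human recombinant receptor were incubated with [3H]-ketanserin near its Kd in Tris-HCl 50 mmol/L pH 7.4 buffer (0.1% BSA) for 1.5 h at 25° C, then filtered on GF/B. Non-specific binding was defined with […] serotonin; Ki came from dose-response curves.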

[2] = target: human recombinant 5-HT2C receptor (Homo sapiens (Human), UniProt P28335); test: 5-HT2C receptor binding inhibition test ([3H]-Mesulergine); conditions: Jump-In HEK cell membrane, [3H]-Mesulergine
Metabolic stability test = type: in vitro ADME; conditions: human hepatic microsomes, 0.5 μmol/L, 30 minutes, 37° C., NADPH (oxidative reaction)
Protocol: Test Example 6-2: Metabolic Stability Test
Using commercially available pooled human hepatic microsomes, a compound according to the present invention was reacted for a constant time, and a remaining rate was calculated by comparing a reacted sample and an unreacted sample, thereby, a degree of metabolism of the compound according to the present invention in liver was evaluated.
A reaction was performed (oxidative reaction) at 37° C. for 0 minutes or 30 minutes in the presence of 1 mmol/L NADPH in 0.2 mL of a buffer (50 mmol/L Tris-HCl pH 7.4, 150 mmol/L potassium chloride, 10 mmol/L magnesium chloride) containing 0.5 mg protein/mL of human hepatic microsomes. After the reaction, 70 μL of the reaction solution was added to 140 μL of a solution of methanol/acetonitrile=1/1 (v/v), mixed and centrifuged at 3000 rpm for 15 minutes. The compound according to the present invention in the supernatant was quantified by LC/MS/MS or Solid Phase Extraction (SPE)/MS, and a remaining rate of the compound according to the present invention after the reaction was calculated, letting a compound amount at 0 minute reaction time be 100%.

[3] = target: human ether-a-go-go related gene (hERG) channel (Homo sapiens (Human), UniProt Q12809); test: hERG test (FluxOR potassium channel assay, FLIPR); type: cell-based; conditions: CHO cells expressing hERG channel, thallium flux fluorescence
Protocol: Test Example 3-2: hERG Test
For the purpose of evaluating risk of an electrocardiogram QT interval prolongation of the compound of the present invention, effects of the compound were studied by evaluating the activity of potassium channel using CHO cells expressing human ether-a-go-go related gene (hERG) channel.
Evaluation was performed using a FluxORII Green Potassium IonCgannel Assay kit (Invitrogen: Molecular Probes).
Cells were seeded in a 384-assay plate (8000 cells/well/40 μL) and incubated (37° C., 5% CO2) overnight. After replacing the medium with a Wash buffer (1×HBSS, 20 mM HEPES) with a microplate washer, a fluorescent indicator was added to the medium and allowed to incubate (37° C., 5% CO2) for 1 hour for incorporation of the fluorescent indicator into cells.
A cell plate was placed on a cell-based kinetic assay system FLIPR (Molecular Devices, LLC.), and the compound was added to the cells so as to have a desired concentration and reacted for 10 minutes. When a mixed solution of potassium and thallium as a stimulator was added thereto, the potassium channel was opened, and thallium that flowed into the cells bound to the fluorescent indicator, so that the intracellular fluorescence signal increased, and the potassium channel current was detected as a fluorescence signal. […] Then, the inhibition rate was calculated from the signal intensity at each concentration. IC50 was calculated from the inhibition rate at each concentration.

[4] = read-out: human serotonin 5-HT2A receptor binding activity, Ki value
[5] = read-out: human serotonin 5-HT2C receptor binding inhibitory activity, Ki value

Sequence of human recombinant 5-HT2A receptor (P28223 whole entry): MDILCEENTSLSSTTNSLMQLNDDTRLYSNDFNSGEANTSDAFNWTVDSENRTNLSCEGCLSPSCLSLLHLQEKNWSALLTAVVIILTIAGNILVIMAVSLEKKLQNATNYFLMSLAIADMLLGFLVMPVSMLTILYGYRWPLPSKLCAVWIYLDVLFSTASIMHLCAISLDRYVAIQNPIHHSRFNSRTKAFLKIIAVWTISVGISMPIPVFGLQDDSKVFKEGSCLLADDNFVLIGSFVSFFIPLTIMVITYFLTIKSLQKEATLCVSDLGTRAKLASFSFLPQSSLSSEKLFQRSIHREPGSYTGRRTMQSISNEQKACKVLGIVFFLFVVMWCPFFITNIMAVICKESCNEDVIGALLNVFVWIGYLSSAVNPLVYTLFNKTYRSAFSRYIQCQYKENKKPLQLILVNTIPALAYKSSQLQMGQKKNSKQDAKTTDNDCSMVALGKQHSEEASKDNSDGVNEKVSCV
Sequence of human recombinant 5-HT2C receptor (P28335 33-458): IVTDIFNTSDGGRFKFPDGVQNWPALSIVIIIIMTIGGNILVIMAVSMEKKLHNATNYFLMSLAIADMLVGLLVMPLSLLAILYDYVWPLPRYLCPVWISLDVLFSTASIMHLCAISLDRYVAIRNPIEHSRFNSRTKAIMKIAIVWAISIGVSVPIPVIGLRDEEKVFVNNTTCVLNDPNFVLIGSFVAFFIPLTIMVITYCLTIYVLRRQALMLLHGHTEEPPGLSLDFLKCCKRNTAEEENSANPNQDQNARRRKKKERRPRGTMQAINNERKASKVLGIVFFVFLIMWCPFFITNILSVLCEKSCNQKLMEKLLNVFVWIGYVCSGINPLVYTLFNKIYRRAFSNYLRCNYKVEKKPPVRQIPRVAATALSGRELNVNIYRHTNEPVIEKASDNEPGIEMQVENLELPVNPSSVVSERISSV
Sequence of human ether-a-go-go related gene (hERG) channel (Q12809 whole entry): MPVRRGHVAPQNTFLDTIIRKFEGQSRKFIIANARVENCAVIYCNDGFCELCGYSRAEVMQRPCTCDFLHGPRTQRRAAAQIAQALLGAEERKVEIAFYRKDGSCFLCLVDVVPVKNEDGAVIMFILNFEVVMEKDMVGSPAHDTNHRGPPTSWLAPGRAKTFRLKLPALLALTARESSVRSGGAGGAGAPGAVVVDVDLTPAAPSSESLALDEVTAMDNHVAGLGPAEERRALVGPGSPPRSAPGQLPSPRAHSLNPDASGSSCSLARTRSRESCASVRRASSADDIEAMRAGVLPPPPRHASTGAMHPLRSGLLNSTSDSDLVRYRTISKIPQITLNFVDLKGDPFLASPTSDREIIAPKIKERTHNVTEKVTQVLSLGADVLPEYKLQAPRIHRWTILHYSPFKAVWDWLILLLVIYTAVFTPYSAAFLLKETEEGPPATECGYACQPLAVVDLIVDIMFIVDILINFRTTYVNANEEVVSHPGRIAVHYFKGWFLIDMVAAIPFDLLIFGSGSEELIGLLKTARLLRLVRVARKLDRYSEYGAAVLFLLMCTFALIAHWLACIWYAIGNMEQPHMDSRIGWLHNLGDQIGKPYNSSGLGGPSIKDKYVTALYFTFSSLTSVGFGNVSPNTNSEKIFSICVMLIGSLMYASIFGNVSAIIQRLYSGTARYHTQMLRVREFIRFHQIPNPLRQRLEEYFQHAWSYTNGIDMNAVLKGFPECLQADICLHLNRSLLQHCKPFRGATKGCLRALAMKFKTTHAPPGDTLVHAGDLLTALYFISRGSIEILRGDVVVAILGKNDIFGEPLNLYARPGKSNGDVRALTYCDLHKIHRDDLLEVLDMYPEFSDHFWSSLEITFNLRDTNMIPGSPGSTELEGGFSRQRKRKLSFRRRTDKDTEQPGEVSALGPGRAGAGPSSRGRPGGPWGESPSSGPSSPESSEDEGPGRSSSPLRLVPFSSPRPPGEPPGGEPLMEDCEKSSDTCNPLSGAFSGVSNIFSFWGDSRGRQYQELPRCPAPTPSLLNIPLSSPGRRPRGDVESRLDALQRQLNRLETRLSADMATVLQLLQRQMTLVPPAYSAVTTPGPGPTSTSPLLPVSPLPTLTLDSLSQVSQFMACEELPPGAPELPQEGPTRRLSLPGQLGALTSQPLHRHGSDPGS

SMILES	Ki ([1]; read-out: h-5-HT2A Ki) [nM]	Ki ([2]; read-out: h-5-HT2C Ki) [nM]	remaining rate of the compound (Metabolic stability test) [%]	Ki [1, 4] [nM]	Ki [2, 5] [nM]	IC50 [3] [nM]
CC(C)COc1ccc(CN(Cc2ccc(F)cn2)C(=O)NC2CCN(C)CC2)cc1 [Compound I-016]	< 10	< 10	99.6	–	–	–
CC(C)COc1ccc(CN(Cc2ccn(C)n2)C(=O)N[C@H]2CCNCC23CC3)cc1 [Compound I-028]	< 10	< 10	90.2	–	–	–
CC(C)COc1ccc(CN(Cc2ccn(C)n2)C(=O)NC2CCN(C)CC2)cc1 [Compound I-043]	–	–	85.0	2.14	3.07	–
Cc1nc(CN(Cc2ccc(OCC(C)C)cc2)C(=O)NC2CCN(C)CC2)co1 [Compound I-077]	< 10	< 10	85.3	–	–	–
Cc1nc(CN(Cc2ccc(OCC(C)C)cc2)C(=O)OC2CCN(C)CC2)co1 [Compound I-081]	< 10	< 10	–	–	–	> 52000
CC(C)COc1ccc(CN(Cc2ccn(C)n2)C(=O)OC2CCN(C)CC2)cc1 [Compound I-082]	10 to 100	10 to 100	–	–	–	> 52000
Cc1cc(CN(Cc2ccc(OCC(C)C)cc2)C(=O)OC2CCN(C)CC2)nn1C [Compound I-083]	10 to 100	–	–	–	–	> 52000
CC(C)COc1ccc(CN(Cc2cnn(C)n2)C(=O)OC2CCN(C)CC2)cc1 [Compound I-084]	–	–	–	2.61	5.78	> 52000
CCCCOc1ccc(CN(Cc2coc(C)n2)C(=O)NC2CCN(C)CC2)cc1 [Compound I-086]	–	–	75.5	0.503	0.241	–
Cc1nc(CN(Cc2ccc(OCC(F)(F)C(F)(F)F)cc2)C(=O)NC2CCN(C)CC2)co1 [Compound I-088]	< 10	< 10	80.0	–	–	–
CCCCOc1ccc(CN(Cc2coc(C)n2)C(=O)CC2CCN(C)CC2)cc1 [Compound I-099]	< 10	< 10	–	–	–	46800
CCCCOc1ccc(CN(Cc2cnn(C)n2)C(=O)NC2CCN(C)CC2)cc1F [Compound I-100]	< 10	< 10	–	–	–	–
CC(C)COc1ccc(CN(Cc2cnn(C)n2)C(=O)NC2CCN(C)CC2)cc1 [Compound I-101]	–	–	–	0.683	0.461	–
CCCCOc1ccc(CN(Cc2cnn(C)n2)C(=O)NC2CCN(C)CC2)c(F)c1 [Compound I-102]	–	–	97.3	0.642	0.412	–
CC(C)COc1ccc(CN(Cc2cnn(C)n2)C(=O)N[C@H]2CCN(C)CC23CC3)cc1 [Compound I-103]	–	–	–	1.89	0.634	–
Cc1nc(CN(Cc2ccc(CCC(F)(F)F)cc2F)C(=O)NC2CCN(C)CC2)co1 [Compound I-104]	–	–	–	0.952	0.484	–
Cc1nc(CN(Cc2ccc(CCC(F)(F)F)cc2)C(=O)NC2CCN(C)CC2)co1 [Compound I-105]	< 10	< 10	–	–	–	–
CCCCOc1ccc(CN(Cc2coc(C)n2)C(=O)CN2CCN(C)CC2)cc1 [Compound I-106]	< 10	< 10	–	–	–	–
CCCc1ccc(CN(Cc2coc(C)n2)C(=O)NC2CCN(C)CC2)cc1F [Compound I-107]	–	–	–	0.549	0.34	–

SMILES	Ki ([1]; read-out: h-5-HT2A Ki) [nM]	Ki ([2]; read-out: h-5-HT2C Ki) [nM]	remaining rate of the compound (Metabolic stability test) [%]	Ki [1, 4] [nM]	Ki [2, 5] [nM]	IC50 [3] [nM]
CCCc1ccc(CN(Cc2coc(C)n2)C(=O)NC2CCN(C)CC2)cc1 [Compound I-108]	< 10	< 10	–	–	–	–
CCCCOc1ccc(CN(Cc2coc(C(F)F)n2)C(=O)NC2CCN(C)CC2)cc1 [Compound I-109]	–	–	–	0.43	0.463	–
CCCCOc1ccc(CN(Cc2coc(C3CC3)n2)C(=O)NC2CCN(C)CC2)cc1 [Compound I-110]	–	–	–	0.537	0.301	–
CN1CCC(NC(=O)N(Cc2ccc(OCC(F)(F)F)cc2)Cc2coc(C3CC3)n2)CC1 [Compound I-111]	< 10	< 10	–	–	–	–
CN1CCC(NC(=O)N(Cc2coc(C3CC3)n2)Cc2ccc(OCC(F)(F)F)cc2F)CC1 [Compound I-112]	< 10	< 10	–	–	–	–
CCCCOc1ccc(CN(Cc2coc(C)n2)C(=O)NC2CCN(C)CC2)c(F)c1 [Compound I-113]	< 10	< 10	–	–	–	–
CCCc1ccc(CN(Cc2coc(C)n2)C(=O)NC2CCN(C)CC2)c(F)c1 [Compound I-114]	< 10	< 10	–	–	–	–
Cc1nc(CN(Cc2ccc(OCC(C)C)c(F)c2)C(=O)NC2CCN(C)CC2)co1 [Compound I-115]	< 10	< 10	–	–	–	–
CC(C)COc1ccc(CN(Cc2cnn(C)n2)C(=O)NC2CCN(C)CC2)cc1F [Compound I-116]	< 10	< 10	–	–	–	–
Cc1nc(CN(Cc2ccc(OCC(C)C)cc2F)C(=O)NC2CCN(C)CC2)co1 [Compound I-117]	–	–	–	0.82	0.315	–
CC(C)COc1ccc(CN(Cc2cnn(C)n2)C(=O)NC2CCN(C)CC2)c(F)c1 [Compound I-118]	–	–	–	1.03	0.371	–
CCCCOc1ccc(CN(Cc2coc(CF)n2)C(=O)NC2CCN(C)CC2)cc1 [Compound I-119]	< 10	< 10	–	–	–	–
CC(C)COc1ccc(CN(Cc2coc(CF)n2)C(=O)NC2CCN(C)CC2)cc1 [Compound I-120]	< 10	< 10	–	–	–	–
Cc1nc(CN(Cc2ccc(OCC(F)(F)C(F)(F)F)cc2F)C(=O)NC2CCN(C)CC2)co1 [Compound I-121]	< 10	< 10	–	–	–	–
CN1CCC(NC(=O)N(Cc2cnn(C)n2)Cc2ccc(OCC(F)(F)C(F)(F)F)cc2F)CC1 [Compound I-122]	–	–	–	0.824	0.281	–
CCCCOc1ccc(CN(Cc2coc(C)n2)C(=O)CC2CCN(C)CC2)cc1F [Compound I-123]	–	–	–	0.506	1.39	–
CCCCOc1ccc(CN(Cc2coc(C)n2)C(=O)CN2CCN(C)CC2)cc1F [Compound I-126]	–	–	–	1.24	6.25	–
CCCCOc1ccc(CN(Cc2coc(C)n2)C(=O)CCC2CCNCC2)cc1F [Compound I-127]	10 to 100	100 to 5000	–	–	–	–
